Experimental data: patent US6645957B2, “Cyclic amide compound” (Kowa Co., Ltd., priority 1998, dated 2003)
Where a name gives a salt, the structure may show the parent alone.

Tested on: production of IgE antibody
Test: Evaluation of inhibitory effect on production of IgE antibody (mouse splenic B cells, LPS + IL-4, ELISA)
Format: cell-based
Details: B-cell, 168 h; test agent 10^−6 M; mouse (Balb/C) B cells cultured with LPS then mouse IL-4 for 7 days; IgE in culture supernatant by ELISA
Procedure: A spleen was enucleated from a mouse (Balb/C, male, aged 8 weeks) and shredded in 0.3% BSA/HBSS to prepare single cells by means of a 200-mesh screen. Further, the single cells were hemolyzed by 0.75% ammonium chloride-17 mM Tris solution to prepare a splenocyte suspension (1×10^7/ml) using RPMI 1640 medium/25 mM HEPES/0.3% BSA. After the suspension was reacted with a rat anti-mouse Thy-1,2 monoclonal antibody (product of Cedarlane Co.) at 4° C. for 1 hour, the reaction mixture was centrifuged, and the sediment cells were suspended again (1×10^7/ml, RPMI/HEPES/BSA). After the suspension was then reacted with a low-cytotoxic rabbit complement (product of Cedarlane Co.) at 37° C. for 1 hour, killed cells were removed by specific gravity centrifugation using lympholyte M (product of Cedarlane Co.) to obtain a B cell fraction as viable cells.
After B cells (10^5/0.2 ml/well) were cultured for a day together with LPS (E. coli 026:B6, product of DIFCO Co.) using a 96-well plate, mouse IL-4 (product of Genzyme Co.) was added to conduct culture further for 7 days.
Each test agent was added on the first day of the culture, and the amount of IgE in a culture supernatant was measured by ELISA after the culture, thereby calculating out the inhibitory effect of the agent on the production of an IgE antibody.

Work on `COc1cc(C#C/C=C/C(=O)N2CCC(CC(CC3CCN(C(=O)/C=C/C#Cc4cc(OC)c(OC)c(OC)c4)CC3)CN(C)C)CC2)cc(OC)c1OC` [Example 33, 1,3-bis[1-[(E)-5-(3,4,5-Trimethoxyphenyl)-2-penten-4-ynoyl]-4-piperidinyl]-2-[(dimethylamino)methyl]propane Hydrochloride] yielded an inhibition at 1 µM of 100%.

`COc1cc(-c2ccc(C(=O)N3CCN(CCCN4CCN(C(=O)c5ccc(-c6cc(OC)c(OC)c(OC)c6)cc5)CC4)CC3)cc2)cc(OC)c1OC` [Example 5, 1,3-bis[4-[4-(3,4,5-Trimethoxyphenyl)-benzoyl]-1-piperazinyl]propane Dihydrochloride] was tested, and the inhibition at 1 µM was 95%.

`COc1cc(-c2ccc(C(=O)N3CCC(N(C)CCN(C)C4CCN(C(=O)c5ccc(-c6cc(OC)c(OC)c(OC)c6)cc5)CC4)CC3)cc2)cc(OC)c1OC` [Example 37, N,N′-bis[1-[4-(3,4,5-Trimethoxyphenyl)benzoyl]-4-piperidinyl]-N,N′-dimethylethylenediamine Dihydrochloride] showed an inhibition at 1 µM of 100%.

`COc1ccc(C(=O)N2CCC(CN3CCN(CC4CCN(C(=O)c5ccc(OC)c(-c6cc(OC)c(OC)c(OC)c6)c5)CC4)CC3)CC2)cc1-c1cc(OC)c(OC)c(OC)c1` [Example 40, 1,4-bis[[1-[4-Methoxy-3-(3,4,5-trimethoxyphenyl)benzoyl]-4-piperidinyl]methyl]piperazine Dihydrochloride] showed an inhibition at 1 µM of 75%.

For `O=C(/C=C/c1ccc2ccccc2c1)N1CCN(Cc2cccc(CN3CCN(C(=O)/C=C/c4ccc5ccccc5c4)CC3)n2)CC1` [Example 20, 2,6-bis[[4-[(E)-3-(2-Naphthyl)-2-propenoyl]-1-piperazinyl]methyl]pyridine], the inhibition at 1 µM was 75%.

Compound `COc1cc2c(cc1OC)C(C)(C)C(/C=C/C(=O)N1CCC(CCCC3CCN(C(=O)/C=C/C4=Cc5cc(OC)c(OC)cc5C4(C)C)CC3)CC1)=C2` [Example 27, 1,3-bis[1-[(E)-3-(5,6-Dimethoxy-1,1-dimethyl-2-indenyl)-2-propenoyl]-4-piperidinyl]propane] has an inhibition at 1 µM of 100%.

Work on `COc1cc(-c2ccc(C(=O)N3CCCN(CCCN4CCCN(C(=O)c5ccc(-c6cc(OC)c(OC)c(OC)c6)cc5)CC4)CC3)cc2)cc(OC)c1OC` [Example 23, 1,1′-Trimethylenedi[4-[4-(3,4,5-trimethoxyphenyl)benzoyl]hexahydro-1,4-diazepine]dihydrochloride] yielded an inhibition at 1 µM of 85%.

In the case of `COc1cc2ccc(/C=C/C(=O)N3CCC(CN(C)CC4CCN(C(=O)/C=C/c5ccc6cc(OC)c(OC)c(OC)c6c5)CC4)CC3)cc2c(OC)c1OC` [Example 36, N,N-bis[[1-[(E)-3-(6,7,8-Trimethoxy-2-naphthyl)-2-propenoyl]-4-piperidinyl]methyl]methylamine Hydrochloride], the inhibition at 1 µM is reported as 60%.

`COc1cc(-c2cc(C(=O)N3CCC(CC(CC4CCN(C(=O)c5ccc(C)c(-c6cc(OC)c(OC)c(OC)c6)c5)CC4)N(C)C)CC3)ccc2C)cc(OC)c1OC` [Example 30, 1,3-bis[1-[4-Methyl-3-(3,4,5-trimethoxyphenyl)benzoyl]-4-piperidinyl]-2-(dimethylamino)propane Hydrochloride] gave an inhibition at 1 µM of 100%.

Compound `COc1cc(-c2ccc(C(=O)N3CCN(Cc4ccc(CN5CCN(C(=O)c6ccc(-c7cc(OC)c(OC)c(OC)c7)cc6)CC5)cc4)CC3)cc2)cc(OC)c1OC` [Example 16, 1,4-bis[[4-[4-(3,4,5-Trimethoxyphenyl)benzoyl]-1-piperazinyl]methyl]benzene Dihydrochloride] has an inhibition at 1 µM of 65%.

`CC(C)(C)c1ccc(/C=C/C=C/C(=O)N2CCN(CCCCCCCCN3CCN(C(=O)/C=C/C=C/c4ccc(C(C)(C)C)cc4)CC3)CC2)cc1` [Example 12, 1,8-bis[4-[(E,E)-5-(4-tert-Butylphenyl)-2,4-pentadienoyl]-1-piperazinyl]octane Dihydrochloride] gave an inhibition at 1 µM of 90%.

`COc1cc(/C=C/C=C/C(=O)N2CCN(CCCN3CCN(C(=O)/C=C/C=C/c4cc(OC)c(OC)c(OC)c4)CC3)CC2)cc(OC)c1OC` [Example 3, 1,3-bis[4-[(E,E)-5-(3,4,5-Trimethoxyphenyl)-2,4-pentadienoyl]-1-piperazinyl]propane Dihydrochloride] gave an inhibition at 1 µM of 100%.

`COc1cc(C#C/C=C/C(=O)N2CCN(CCCN3CCN(C(=O)/C=C/C#Cc4cc(OC)c(OC)c(OC)c4)CC3)CC2)cc(OC)c1OC` [Example 6, 1,3-bis[4-[(E)-5-(3,4,5-Trimethoxyphenyl)-2-penten-4-ynoyl]-1-piperazinyl]propane Dihydrochloride] gave an inhibition at 1 µM of 95%.

For `CSc1ncccc1/C=C/C=C/C(=O)N1CCN(CCCCCCCCN2CCN(C(=O)/C=C/C=C/c3cccnc3SC)CC2)CC1` [Example 13, 1,8-bis[4-[(E,E)-5-(2-Methylthio-3-pyridyl)-2,4-pentadienoyl]-1-piperazinyl]octane Dihydrochloride], the inhibition at 1 µM was 95%.
